What was measured:
[1] = Biopharmaceutics Classification System class; type: physicochemical
ER = biological target: T1, ER (Homo sapiens, UniProt P03372); experiment: ER degradation; details: evidence in words
T1 construct: PROTAC recruits cereblon (CRBN) E3 ligase
T1 sequence (P03372 1-595): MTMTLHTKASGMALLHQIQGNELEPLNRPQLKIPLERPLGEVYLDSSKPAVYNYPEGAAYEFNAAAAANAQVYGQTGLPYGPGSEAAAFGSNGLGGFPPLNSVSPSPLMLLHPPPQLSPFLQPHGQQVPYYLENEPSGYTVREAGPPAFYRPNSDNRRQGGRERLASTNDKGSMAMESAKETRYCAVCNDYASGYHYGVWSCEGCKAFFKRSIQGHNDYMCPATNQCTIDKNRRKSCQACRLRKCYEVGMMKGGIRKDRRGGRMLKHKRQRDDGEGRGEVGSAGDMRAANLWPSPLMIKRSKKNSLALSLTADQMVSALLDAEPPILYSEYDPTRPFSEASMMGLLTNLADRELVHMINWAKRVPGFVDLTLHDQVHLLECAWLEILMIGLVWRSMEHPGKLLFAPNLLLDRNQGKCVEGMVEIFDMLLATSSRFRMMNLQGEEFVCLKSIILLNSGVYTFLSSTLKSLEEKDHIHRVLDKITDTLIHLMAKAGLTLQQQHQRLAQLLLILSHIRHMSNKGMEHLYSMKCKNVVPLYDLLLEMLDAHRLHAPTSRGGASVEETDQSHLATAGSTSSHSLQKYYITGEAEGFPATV

[2] = Preclinical exposure of epimer Compound B vs Compound A; type: in vivo; details: preclinical data; epimer formed by interconversion of Compound A

| Structure (SMILES) | permeability (in words, BCS) [1] | solubility (in words, BCS) [1] | ER degradation (ER) | exposure of Compound B compared to Compound A [2] |
| --- | --- | --- | --- | --- |
| O=C1CC[C@H](N2Cc3cc(N4CCN(CC5CCN(c6ccc([C@@H]7c8ccc(O)cc8CC[C@@H]7c7ccccc7)cc6)CC5)CC4)ccc3C2=O)C(=O)N1 [Compound A, (S)-3-(5-(4-((1-(4-((1R,2S)-6-hydroxy-2-phenyl-1,2,3,4-tetrahydronaphthalen-1-yl)phenyl)piperidin-4-yl)methyl)piperazin-1-yl)-1-oxoisoindolin-2-yl)piperidine-2,6-dione] | low permeability | low solubility | – | – |
| O=C1CC[C@@H](N2Cc3cc(N4CCN(CC5CCN(c6ccc([C@@H]7c8ccc(O)cc8CC[C@@H]7c7ccccc7)cc6)CC5)CC4)ccc3C2=O)C(=O)N1 [Compound B] | – | – | does not degrade the ER | < 26% |

Reference: US20260335451A1, “SOLID ORAL DOSAGE FORMS OF ESTROGEN RECEPTOR DEGRADERS” (Arvinas Operations, Inc., priority 2023, published 2026)
